In patent US20050244335A1, “Methods and compositions related to increasing antitumor activity of chemotherapeutic agents” (priority 2004, published 2005):

Tests used:
[1] = test system: human breast cancer MCF-7 xenografts; test: In vivo chemotherapy, breast cancer MCF-7 xenograft model in nude mice; settings: MCF-7 model; agent alone
From the text: Cell Culture. […] All media contained 1% penicillin-streptomycin.
(§1) Data and Statistical Analysis.

[2] = Pharmacokinetics of carboplatin in nude mice bearing LS174T xenografts; format: in vivo; settings: for AUC / CL / Cmax / T1/2 / Vss: nude mice bearing LS174T xenografts, carboplatin 60 mg/kg iv
Description: Pharmacokinetics and Tissue Distribution of Carboplatin. Pharmacokinetic studies were carried out using a protocol similar to that previously described (26) using metabolism cages. Female nude mice bearing human colon cancer LS174T xenografts or human lung cancer A549 xenografts were used (3 animals for each time point). Animals were pre-treated with DEX (s.c., 0.1 mg/day/mouse for 5 days) or saline (as controls) and, at 1 hr after the fifth dose of DEX, were given a single intravenously (i.v.) bolus administration of carboplatin (60 mg/kg) via a tail vein. At various times (5, 15, and 30 min, 1, 2, 4, 8, and 24 hr after carboplatin dosing), blood samples were collected in heparinized tubes and tissue samples removed. Plasma was separated by centrifugation at 20,000 g for 5 min. Tissues including liver, kidneys, spleen, and tumor were taken at various times and immediately blotted on Whatman No. 1 filter paper, trimmed of extraneous fat or connective tissue, weighed, and homogenized in 0.9% NaCl physiological saline (5 mL per gram of wet weight). The resultant homogenates were stored at −70° C. until further analysis. Bone marrow cells were harvested by flushing the femurs with sterile physiological saline as reported previously (30). Briefly, after removing the distal and proximal ends of femur, each end of the bone was punctured with a 20-gauge needle fitted with a 5 mL syringe containing 1 mL of sterile physiological saline (pre-weighed). The bone was then held with a forceps over a test tube and the needle was inserted into the hole in the proximal end. The 1 mL saline was flushed through the bone into the tube by applying gentle, steady pressure to the plunger. The syringe was then filled with 5 ml of air that was gently forced through the bone to remove the remaining saline and bone marrow in the shaft. The resultant bone marrow cell suspension was weighed and lysed by sonicating 5 times for periods of 10 sec. Following centrifugation at 20,000 g for 30 min, the supernatant was removed and stored at −70° C. until further analysis.
HPLC Analysis of Carboplatin in Plasma and Tissues. Carboplatin in biological samples was analyzed by an analytical procedure involving micro-filtration and reversed-phase HPLC (31). 200 μL of plasma or tissue homogenates or bone marrow suspension was added to the reservoir of a Centrifree™ micropartition system. The latter was capped and centrifuged at 2,000 g for 5 min. All filtrates were transferred into a new micro centrifuge tube and 6 μL of the filtrates was injected onto the HPLC column. The HPLC system consisted of a Hewlett Packard 1050 ChemStation with a UV detector (Agilent 1050 series). Determination of Carboplatin was achieved using a LiChrosorb™ diol (10 μm, 250×4.6 mm) analytical column with a LiChroCART 100 RP-18 guard column. The mobile phase for plasma was composed of 98:2 acetonitrile:H2O (vol/vol) and 89:11 acetonitrile: 0.015% H3PO4 (vol/vol) for urine and tissue samples. The flow rates were 2 mL/min (for plasma) and 1.1 mL/min (for urine and tissue samples). The column elute was monitored by UV at 229 nm. Quantitation of plasma or tissue carboplatin was carried out by using an external standard curve (0-4,000.0 μg/mL) that was freshly prepared on a daily basis. Linear regression and correlation analysis were carried out to establish the standard peak-area/concentration curves for carboplatin.
as §1

human cancer xenografts = test: Six murine-human cancer xenograft models overall: efficacy and toxicity; settings: nude mice; carboplatin 120 mg/kg, gemcitabine 160 mg/kg i.p.
Description: Human cancer xenograft models were established using the methods reported previously (26-29). When confluence reached 80%, cultured LS174T, MCF-7, MDA-MB-468, U87-MG, A549 and H1299 cells were harvested from the monolayer cultures, washed with the above indicated serum-free medium and resuspended in the same medium with Matrigel® basement membrane matrix at a 3:1 ratio, and then injected subcutaneously (s.c.) (5×10^6 cells, total volume 0.2 mL) into the left inguinal area of the nude mice. The animals were monitored for activity, physical condition, determination of body weight, and measurement of tumor growth. Tumor growth was determined by caliper measurement in two perpendicular diameters of the implant every other day. Tumor weight (in g) was calculated by the formula, 1/2a×b^2 where “a” is the long diameter and “b” is the short diameter (in cm).
Nude mice bearing human cancer xenografts were randomly divided into various treatment and control groups (5 mice/group). In treatment groups, animals were pre-treated with DEX subcutaneously (s.c., 0.1 mg/day for 5 days, Day −4-0) or saline (as controls). Carboplatin was administered intraperitoneally (i.p.) at a single dose of 120 mg/kg (360 mg/m^2) on day 0.
The antitumor activity (tumor mass) and peripheral blood counts were expressed as mean and standard deviations and the significance of differences were analyzed by ANOVA.
When mean tumor mass reached 44-68 mg, animals were treated with s.c. DEX at a dose of 0.1 mg/day for 5 days, followed by chemotherapy.

[3] = LS174T nude mice, without DEX treatment

Q: What does the source list for N.N.O=C([O-])C1(C(=O)[O-])CCC1.[Pt+2] [carboplatin]?
A: effect on tumor growth [1]: limited effects on tumor growth; decrease in tumor Clearance by DEX pretreatment ([2]; LS174T nude mice): 160%; increase in tumor AUC by DEX pretreatment ([2]; LS174T nude mice): 200%; increase in tumor Cmax by DEX pretreatment ([2]; LS174T nude mice): 100%; tumor AUC relative to bone marrow AUC [2, 3]: 3%; tumor AUC relative to liver AUC [2, 3]: 23%; tumor AUC relative to spleen AUC [2, 3]: 4%; AUC ([2]; bone marrow, DEX (+)): 269.71 µg·h/mL; CL ([2]; bone marrow, DEX (+)): 0.22 mL/g/h; Cmax ([2]; bone marrow, DEX (+)): 22.56 µg/mL; T1/2 ([2]; bone marrow, DEX (+)): 410 min; Vss ([2]; bone marrow, DEX (+)): 2.17 mL/g; AUC ([2]; bone marrow, DEX (−)): 411.27 µg·h/mL; CL ([2]; bone marrow, DEX (−)): 0.15 mL/g/h; Cmax ([2]; bone marrow, DEX (−)): 23.36 µg/mL; T1/2 ([2]; bone marrow, DEX (−)): 669.6 min; Vss ([2]; bone marrow, DEX (−)): 2.42 mL/g; AUC ([2]; liver, DEX (+)): 42.45 µg·h/mL; CL ([2]; liver, DEX (+)): 1.41 mL/g/h; Cmax ([2]; liver, DEX (+)): 19.41 µg/mL; T1/2 ([2]; liver, DEX (+)): 33.6 min; Vss ([2]; liver, DEX (+)): 1.14 mL/g; AUC ([2]; liver, DEX (−)): 51.52 µg·h/mL; CL ([2]; liver, DEX (−)): 1.16 mL/g/h; Cmax ([2]; liver, DEX (−)): 26.97 µg/mL; T1/2 ([2]; liver, DEX (−)): 29.4 min; Vss ([2]; liver, DEX (−)): 0.82 mL/g; AUC ([2]; plasma, DEX (+)): 43.16 µg·h/mL; CL ([2]; plasma, DEX (+)): 1.39 mL/g/h; Cmax ([2]; plasma, DEX (+)): 280.80 µg/mL; T1/2 ([2]; plasma, DEX (+)): 6.6 min; Vss ([2]; plasma, DEX (+)): 0.21 mL/g; AUC ([2]; plasma, DEX (−)): 44.51 µg·h/mL; CL ([2]; plasma, DEX (−)): 1.35 mL/g/h; Cmax ([2]; plasma, DEX (−)): 375.27 µg/mL; T1/2 ([2]; plasma, DEX (−)): 4.8 min; Vss ([2]; plasma, DEX (−)): 0.16 mL/g; AUC ([2]; spleen, DEX (+)): 0.48 µg·h/mL; CL ([2]; spleen, DEX (+)): 126.35 mL/g/h; Cmax ([2]; spleen, DEX (+)): 9.44 µg/mL; T1/2 ([2]; spleen, DEX (+)): 2.4 min; Vss ([2]; spleen, DEX (+)): 6.36 mL/g; AUC ([2]; spleen, DEX (−)): 353.36 µg·h/mL; CL ([2]; spleen, DEX (−)): 0.17 mL/g/h; Cmax ([2]; spleen, DEX (−)): 24.20 µg/mL; T1/2 ([2]; spleen, DEX (−)): 595 min; Vss ([2]; spleen, DEX (−)): 2.43 mL/g; AUC ([2]; tumor, DEX (+)): 33.54 µg·h/mL; CL ([2]; tumor, DEX (+)): 1.79 mL/g/h; Cmax ([2]; tumor, DEX (+)): 89.80 µg/mL; T1/2 ([2]; tumor, DEX (+)): 15.6 min; Vss ([2]; tumor, DEX (+)): 0.67 mL/g; AUC ([2]; tumor, DEX (−)): 12.79 µg·h/mL; CL ([2]; tumor, DEX (−)): 4.69 mL/g/h; Cmax ([2]; tumor, DEX (−)): 44.16 µg/mL; T1/2 ([2]; tumor, DEX (−)): 12 min; Vss ([2]; tumor, DEX (−)): 1.36 mL/g; death (human cancer xenografts): no death occurred; tolerability by inspection and animal weights (human cancer xenografts): tolerated well
